# Measurements as given in article PMC10406430 (Neuro-Oncology Advances, 2023).
# Where two headings read alike, the source gives them in different places. Marks after values point to notes of the source that are not given here.
# Legend:
# [1] = Plasma pharmacokinetics of PAC-1 and TMZ (LC-MS/MS, non-compartmental analysis); format: in vivo, human; conditions: for AUC(0-inf) / CL/F / Cmax / Tmax / half-life: human, plasma, po; for AUC(0-inf): read-out: AUC0-∞, geometric mean (geometric CV%); for CL/F: read-out: CL/F, geometric mean (geometric CV%) (converted); for Cmax: read-out: Cmax, geometric mean (geometric CV%); for Tmax: read-out: Tmax, median (range); for half-life: read-out: t1/2-λ, geometric mean (geometric CV%) (converted)
# Protocol: Pharmacokinetics (PK) were assessed in each dose cohort for PAC-1 following doses administered on days 7 (without TMZ) and 12 (with TMZ) of the first cycle and TMZ on day 12 of cycle 1. Both drugs were administered under fasting conditions in the morning for PAC-1 and morning or evening for TMZ. To facilitate the PK study and amplify any PK interaction between drugs, the administration of TMZ was standardized to occur in the morning on cycle 1, day 12 two hours before PAC-1. Plasma samples were collected on the mornings of days 7 and 12 of cycle 1 prior to oral ingestion of TMZ (day 12 only), 1 hour (day 12) or immediately (day 7) before administration of PAC-1 and at 0.5, 1, 2, 4, 6, 8, 10, and 24 hours after ingestion of PAC-1 (both days). The PAC-1 and TMZ concentrations in plasma were determined by validated high-performance liquid chromatography and tandem mass spectrometry (LC-MS/MS) assays. Non-compartmental analysis of the PAC-1 and TMZ plasma concentration-time data was performed using WinNonlin version 8.1 (Certara. L.P., Princeton, NJ). The analysis occurred at steady state for PAC-1 and non-steady state conditions for TMZ. Parameters included: maximum plasma concentration (Cmax), time at Cmax (Tmax), minimum plasma concentration at steady-state (Css,min), area under the PAC-1 plasma concentration-time curve over the steady-state dosing interval (AUC0-τ,ss), area under the TMZ plasma concentration-time curve from time zero to infinity (AUC0-∞), oral clearance (CL/F), volume of distribution (V/F), and terminal phase half-life (t1/2).
# The PK parameters were logarithmically (natural) transformed and Css-max, Css-min, and AUC0-τ,ss normalized for a 500 mg dose across dose groups for the analysis by multiplying the parameter by the quotient of 500 mg divided by the actual dose. […] Lack of interaction was concluded when the 90% CI for the ratio was contained within the conventional bioequivalence range of 0.80 to 1.25.
# systemic solid tumors = conditions: cited from earlier work
# glioma = conditions: PAC-1 in combination with TMZ and radiation; cited from earlier work
# [2] = tested on: P-glycoprotein efflux pump; conditions: cited from earlier work
# [3] = tested on: cytochrome P450 isozymes (CYP) 2C19, 2D6, and 3A4; assay: In vitro studies of hepatic metabolism pathways; format: in vitro ADME; conditions: preliminary evidence from in vitro studies (unpublished); CYP 2C19, 2D6, 3A4
# [4] = mice; consistent with cLogBB prediction models; cited from earlier work
# [5] = design: method as in earlier work; conditions: animal studies and a single clinical trial; ref 1-3 (supplement list); cited from earlier work
# human glioma cell lines = conditions: single agent and in combination with TMZ; cited from earlier work
# [6] = tested on: intracranial models in rodents; conditions: syngeneic and xenograft models, single agent and in combination with TMZ; cited from earlier work
# [7] = 150 mg/m2, TMZ 150 mg/m^2 oral with PAC-1 375 mg/day
# [8] = 150 mg/m2, TMZ 150 mg/m^2 oral with PAC-1 500 mg/day
# [9] = 150 mg/m2, TMZ 150 mg/m^2 oral with PAC-1 625 mg/day
# [10] = PAC-1 375 mg/day oral, Cycle 1 Day 7 (alone)
# [11] = PAC-1 375 mg/day oral, Cycle 1 Day 12 (with TMZ)
# [12] = PAC-1 500 mg/day oral, Cycle 1 Day 7 (alone)
# [13] = PAC-1 500 mg/day oral, Cycle 1 Day 12 (with TMZ)
# [14] = PAC-1 625 mg/day oral, Cycle 1 Day 7 (alone)
# [15] = PAC-1 625 mg/day oral, Cycle 1 Day 12 (with TMZ)
# [16] = PAC-1, Cycle 1 Day 12 (with TMZ)/Cycle 1 Day 7 (alone)
# [17] = PAC-1, Cycle 1 Day 12 (with TMZ)/Cycle 1 Day 7 (alone), normalized to 500 mg
compound,measurement,setting,value
"Cn1nnc2c(C(N)=O)ncn2c1=O [temozolomide, reference compound]",impact of PAC-1 dose on PK parameters of TMZ (mixed effects analyses),"[1]; PAC-1 375, 500, 625 mg/day",did not significantly (p > 0.05) impact any PK parameters of TMZ
same,"V/F, geometric mean (geometric CV%)",[1]; TMZ 150 mg/m^2 oral with PAC-1 375 mg/day,0.40 (16.7) L/kg
same,"V/F, geometric mean (geometric CV%)",[1]; TMZ 150 mg/m^2 oral with PAC-1 500 mg/day,0.44 (15.0) L/kg
same,"V/F, geometric mean (geometric CV%)",[1]; TMZ 150 mg/m^2 oral with PAC-1 625 mg/day,0.44 (15.7) L/kg
same,AUC(0-inf),[1]; [7],22800 ng·h/mL
same,CL/F,[1]; [7],2.52 mL/min/kg
same,Cmax,[1]; [7],7310 ng/mL
same,Tmax,[1]; [7],1 h
same,half-life,[1]; [7],112 min
same,AUC(0-inf),[1]; [8],23800 ng·h/mL
same,CL/F,[1]; [8],2.63 mL/min/kg
same,Cmax,[1]; [8],7750 ng/mL
same,Tmax,[1]; [8],0.98 h
same,half-life,[1]; [8],116 min
same,AUC(0-inf),[1]; [9],23900 ng·h/mL
same,CL/F,[1]; [9],2.67 mL/min/kg
same,Cmax,[1]; [9],7630 ng/mL
same,Tmax,[1]; [9],1 h
same,half-life,[1]; [9],115 min
"C=CCc1cccc(/C=N/NC(=O)CN2CCN(Cc3ccccc3)CC2)c1O [PAC-1, procaspase-activating compound-1]",recommended phase 2 dose (RP2D),"systemic solid tumors; oral single agent PAC-1, patients with systemic solid tumors",750 mg/day
same,relationship between PAC-1 dose and AUC,"systemic solid tumors; single agent, doses up to 750 mg/day",linear relationship
same,responses in canine cancer patients with glioma,glioma,"all treated glioma dogs had responses, including one complete response"
same,increase in PAC-1 CL/F with dexamethasone co-administration,[1]; 375 and 500 mg/day groups,approximately 18%
same,"AUCss,0-τ, geometric mean (geometric CV%)",[1]; [10],23434 (12.0) h*ng/ml
same,"CL/F, geometric mean (geometric CV%)",[1]; [10],185 (26.6) ml/h/kg
same,"Cmax, geometric mean (geometric CV%)",[1]; [10],1728 (19.6) ng/ml
same,"Css-min, geometric mean (geometric CV%)",[1]; [10],647.8 (11.0) ng/ml
same,"Tmax, median (range)",[1]; [10],3.00 (1.98-6.00) h
same,"V/F, geometric mean (geometric CV%)",[1]; [10],6.1 (36.1) L/kg
same,"AUCss,0-τ, geometric mean (geometric CV%)",[1]; [11],22519 (13.8) h*ng/ml
same,"CL/F, geometric mean (geometric CV%)",[1]; [11],193 (32.9) ml/h/kg
same,"Cmax, geometric mean (geometric CV%)",[1]; [11],1802 (19.7) ng/ml
same,"Css-min, geometric mean (geometric CV%)",[1]; [11],525.4 (12.3) ng/ml
same,"Tmax, median (range)",[1]; [11],3.00 (1.98 - 9.83) h
same,"V/F, geometric mean (geometric CV%)",[1]; [11],5.4 (27.3) L/kg
same,"t1/2-λ, geometric mean (geometric CV%)",[1]; [11],20.0 (12.0) h
same,"AUCss,0-τ, geometric mean (geometric CV%)",[1]; [12],32823 (28.0) h*ng/ml
same,"CL/F, geometric mean (geometric CV%)",[1]; [12],203 (38.1) ml/h/kg
same,"Cmax, geometric mean (geometric CV%)",[1]; [12],3026 (34.0) ng/ml
same,"Css-min, geometric mean (geometric CV%)",[1]; [12],776.8 (27.9) ng/ml
same,"Tmax, median (range)",[1]; [12],2.34 (0.50- 5.92) h
same,"V/F, geometric mean (geometric CV%)",[1]; [12],5.1 (53.0) L/kg
same,"t1/2-λ, geometric mean (geometric CV%)",[1]; [12],17.6 (18.9) h
same,"AUCss,0-τ, geometric mean (geometric CV%)",[1]; [13],34274 (13.2) h*ng/ml
same,"CL/F, geometric mean (geometric CV%)",[1]; [13],194 (26.0) ml/h/kg
same,"Cmax, geometric mean (geometric CV%)",[1]; [13],2938 (32.2) ng/ml
same,"Css-min, geometric mean (geometric CV%)",[1]; [13],770.0 (19.6) ng/ml
same,"Tmax, median (range)",[1]; [13],2.01 (1.92 - 3.07) h
same,"V/F, geometric mean (geometric CV%)",[1]; [13],5.0 (40.3) L/kg
same,"t1/2-λ, geometric mean (geometric CV%)",[1]; [13],17.9 (31.1) h
same,"AUCss,0-τ, geometric mean (geometric CV%)",[1]; [14],24634 (45.2) h*ng/ml
same,"CL/F, geometric mean (geometric CV%)",[1]; [14],322 (38.0) ml/h/kg
same,"Cmax, geometric mean (geometric CV%)",[1]; [14],1876 (47.5) ng/ml
same,"Css-min, geometric mean (geometric CV%)",[1]; [14],565.9 (47.4) ng/ml
same,"Tmax, median (range)",[1]; [14],1.98 (0.82 – 2.00) h
same,"V/F, geometric mean (geometric CV%)",[1]; [14],8.7 (40.6) L/kg
same,"t1/2-λ, geometric mean (geometric CV%)",[1]; [14],18.7 (42.9) h
same,"AUCss,0-τ, geometric mean (geometric CV%)",[1]; [15],21854 (39.7) h*ng/ml
same,"CL/F, geometric mean (geometric CV%)",[1]; [15],363 (31.2) ml/h/kg
same,"Cmax, geometric mean (geometric CV%)",[1]; [15],2124 (57.9) ng/ml
same,"Css-min, geometric mean (geometric CV%)",[1]; [15],480.0 (40.4) ng/ml
same,"Tmax, median (range)",[1]; [15],1.03 (1.00 - 4.17) h
same,"V/F, geometric mean (geometric CV%)",[1]; [15],9.7 (17.0) L/kg
same,"t1/2-λ, geometric mean (geometric CV%)",[1]; [15],18.5 (32.9) h
same,PK interactions between PAC-1 and TMZ,"[1]; PAC-1 375, 500 or 625 mg/day with TMZ 150 mg/m^2",did not identify PK interactions
same,"CL/F, Geometric Least-Square Mean Ratio (90%CI)",[1]; [16],"1.07 (0.98, 1.17)"
same,"t1/2-λ, Geometric Least-Square Mean Ratio (90%CI)",[1]; [16],"1.04 (0.90, 1.22)"
same,"AUCss,0-τ, Geometric Least-Square Mean Ratio (90%CI)",[1]; [17],"0.93 (0.85, 1.02) ^†"
same,"Cmax, Geometric Least-Square Mean Ratio (90%CI)",[1]; [17],"1.02 (0.85, 1.23) ^†"
same,"Css-min, Geometric Least-Square Mean Ratio (90%CI)",[1]; [17],"0.86 (0.80, 0.92) ^†"
same,dose proportionality of PAC-1 plasma concentrations,[1]; between 375 mg/day and 500 mg/day,increased proportionally
same,PAC-1 plasma concentrations below predicted levels,"[1]; single subject in the 625 mg group, same without and with TMZ",approximately 70%
same,PAC-1 CL/F,[1]; subjects from the 375 and 500 mg/day groups receiving dexamethasone,221 mL/h/kg
same,substrate of the P-glycoprotein efflux pump,[2],not a substrate
same,pathways of hepatic metabolism,[3],possible pathways of hepatic metabolism
same,blood-brain barrier penetration,[4],significantly penetrate the blood-brain barrier
same,"extraction, elimination and oral bioavailability",[5],"high extraction ratio, hepatically eliminated drug with low and variable oral bioavailability"
same,activity against human glioma cell lines,human glioma cell lines,promising activity
same,activity in intracranial models in rodents,[6],promising activity
